One experiment has as its target T1, Raw264.7 p110 γ (Mus musculus, UniProt Q9JHG7).
T1 construct: reduction of phospho-AKT in stimulated RAW 264.7 cells; endogenous in cells; host or cells: RAW264.7 macrophages
Description: Raw264.7 p110 γ cellular assay (phospho-AKT). It counts as cell-based. Conditions: serum-starved RAW264.7 cells stimulated with C5a. The source says:
(b) PI3K-γ Selective Assay
Briefly, serum-starved PAW264.7 cells are stimulated with a known GPCR agonist C5a. […] Cells can be treated with test compounds prior to, simultaneously with, or subsequent to the stimulation by C5a. RAW 264.7 cells respond to the complement component fragment C5a through activation of the C5a receptor, and the C5a receptor activates macrophages and induces cell migration.

The target of a further experiment is T2, PI3K α (Homo sapiens, UniProt P42336).
T2 construct: purchased Millipore
T2 sequence (P42336 whole entry): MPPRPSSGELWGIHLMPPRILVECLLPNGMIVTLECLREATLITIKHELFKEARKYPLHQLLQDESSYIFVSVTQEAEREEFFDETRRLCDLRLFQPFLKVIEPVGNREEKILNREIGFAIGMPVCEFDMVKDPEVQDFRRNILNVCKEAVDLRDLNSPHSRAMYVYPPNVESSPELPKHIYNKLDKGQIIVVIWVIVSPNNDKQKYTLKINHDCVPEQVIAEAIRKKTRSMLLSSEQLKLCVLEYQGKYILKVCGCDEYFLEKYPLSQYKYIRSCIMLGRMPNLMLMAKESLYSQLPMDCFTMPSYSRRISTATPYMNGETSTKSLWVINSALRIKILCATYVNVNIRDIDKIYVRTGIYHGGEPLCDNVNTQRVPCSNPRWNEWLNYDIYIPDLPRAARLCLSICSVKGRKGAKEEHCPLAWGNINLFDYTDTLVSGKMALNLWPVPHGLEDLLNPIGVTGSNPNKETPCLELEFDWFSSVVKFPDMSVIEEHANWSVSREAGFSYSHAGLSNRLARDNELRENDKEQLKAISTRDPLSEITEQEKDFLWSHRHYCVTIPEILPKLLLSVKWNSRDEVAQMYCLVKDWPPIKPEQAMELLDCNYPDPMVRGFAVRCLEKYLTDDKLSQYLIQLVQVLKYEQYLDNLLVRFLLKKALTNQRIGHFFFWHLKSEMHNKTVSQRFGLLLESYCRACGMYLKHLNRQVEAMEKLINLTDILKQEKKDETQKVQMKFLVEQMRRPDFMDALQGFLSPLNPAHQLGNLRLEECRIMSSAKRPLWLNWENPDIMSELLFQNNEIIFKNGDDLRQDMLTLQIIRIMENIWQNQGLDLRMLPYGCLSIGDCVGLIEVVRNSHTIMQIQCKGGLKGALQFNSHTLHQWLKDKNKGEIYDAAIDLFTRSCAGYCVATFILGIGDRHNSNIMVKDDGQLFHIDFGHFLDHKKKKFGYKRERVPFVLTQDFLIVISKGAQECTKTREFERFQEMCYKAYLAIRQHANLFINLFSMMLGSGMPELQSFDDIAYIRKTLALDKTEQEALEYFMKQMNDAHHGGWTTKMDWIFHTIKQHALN
T2 sequence (P27986 whole entry partner): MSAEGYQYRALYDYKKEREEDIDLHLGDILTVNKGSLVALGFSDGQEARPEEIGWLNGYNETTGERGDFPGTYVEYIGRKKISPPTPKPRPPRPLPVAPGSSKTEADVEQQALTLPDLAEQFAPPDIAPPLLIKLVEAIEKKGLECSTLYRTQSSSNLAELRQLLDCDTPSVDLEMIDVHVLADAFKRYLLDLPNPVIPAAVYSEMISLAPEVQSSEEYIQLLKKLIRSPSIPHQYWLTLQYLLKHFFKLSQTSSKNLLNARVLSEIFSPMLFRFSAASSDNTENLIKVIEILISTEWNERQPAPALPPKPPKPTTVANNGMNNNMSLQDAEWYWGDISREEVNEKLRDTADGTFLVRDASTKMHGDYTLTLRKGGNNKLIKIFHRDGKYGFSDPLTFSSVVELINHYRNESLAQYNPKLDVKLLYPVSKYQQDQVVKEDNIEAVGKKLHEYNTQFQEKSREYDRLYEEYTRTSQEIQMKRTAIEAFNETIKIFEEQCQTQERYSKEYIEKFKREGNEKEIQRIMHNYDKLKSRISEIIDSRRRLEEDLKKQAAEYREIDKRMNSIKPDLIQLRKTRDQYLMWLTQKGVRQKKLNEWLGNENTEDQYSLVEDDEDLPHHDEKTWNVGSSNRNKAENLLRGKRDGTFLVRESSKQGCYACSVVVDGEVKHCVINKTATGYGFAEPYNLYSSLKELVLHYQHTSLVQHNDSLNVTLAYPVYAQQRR
Nature of the experiment: PI3-Kinase Promega ADP-Glo Max assay. Conditions: 20 nM kinase, 3 mM ATP, 500 uM diC8-PtdInsP. The experiment is classed as biochemical. The method, then: (§1) Promega ADP-Glo Max assay kit (Cat. No. V7002) was utilized to determine IC50 values for α, β, δ and γ isoforms of human Class I PI3 kinases (Millipore). Samples of kinase (20 nM α or δ, 40 nM β or γ isoform) were incubated with compound for 15 minutes at room temperature in reaction buffer (15 mM HEPES pH 7.4, 20 mM NaCl, 1 mM EGTA, 0.02% Tween 20, 10 mM MgCl2, 0.2 mg/mL bovine-γ-globulins) followed by addition of ATP/diC8-PtdInsP mixture to give final concentrations of 3 mM ATP and 500 uM diC8-PtdInsP. Reactions were incubated at room temperature for 2 hours followed by addition of 25 uL of stop solution. After a 40-minute incubation at room temperature, 50 uL of Promega detection mix was added followed by incubation for 1 hour at room temperature. Plates were then read on Envision plate reader in luminescence mode. Data was converted to % inhibition using the following equation below:
(§2) [formula] where S is the sample luminescence, Pos is a positive control without added PI3K, Neg is the negative control without added compound. Data was then plotted as % inhibition vs compound concentration. Data fit to 4 parameter logistic equation to determine IC50 values: […]
(§3) Certain compounds provided herein were tested in PI3-Kinase Promega Assay using procedures as described above to determine IC50 values for α, β, δ and/or γ isoforms.

In another experiment the target is T3, PI3K β (Homo sapiens, UniProt P42338).
T3 construct: purchased Millipore
Nature of the experiment: PI3-Kinase Promega ADP-Glo Max assay. Conditions: 40 nM kinase, 3 mM ATP, 500 uM diC8-PtdInsP. The experiment is classed as biochemical. As to the method: as §1, §2, §3
Background: In ADP-Glo the light output rises with the ADP produced.

For another experiment, the target named is T4, PI3K δ (Homo sapiens, UniProt O00329).
T4 construct: purchased Millipore
T4 sequence (O00329 whole entry): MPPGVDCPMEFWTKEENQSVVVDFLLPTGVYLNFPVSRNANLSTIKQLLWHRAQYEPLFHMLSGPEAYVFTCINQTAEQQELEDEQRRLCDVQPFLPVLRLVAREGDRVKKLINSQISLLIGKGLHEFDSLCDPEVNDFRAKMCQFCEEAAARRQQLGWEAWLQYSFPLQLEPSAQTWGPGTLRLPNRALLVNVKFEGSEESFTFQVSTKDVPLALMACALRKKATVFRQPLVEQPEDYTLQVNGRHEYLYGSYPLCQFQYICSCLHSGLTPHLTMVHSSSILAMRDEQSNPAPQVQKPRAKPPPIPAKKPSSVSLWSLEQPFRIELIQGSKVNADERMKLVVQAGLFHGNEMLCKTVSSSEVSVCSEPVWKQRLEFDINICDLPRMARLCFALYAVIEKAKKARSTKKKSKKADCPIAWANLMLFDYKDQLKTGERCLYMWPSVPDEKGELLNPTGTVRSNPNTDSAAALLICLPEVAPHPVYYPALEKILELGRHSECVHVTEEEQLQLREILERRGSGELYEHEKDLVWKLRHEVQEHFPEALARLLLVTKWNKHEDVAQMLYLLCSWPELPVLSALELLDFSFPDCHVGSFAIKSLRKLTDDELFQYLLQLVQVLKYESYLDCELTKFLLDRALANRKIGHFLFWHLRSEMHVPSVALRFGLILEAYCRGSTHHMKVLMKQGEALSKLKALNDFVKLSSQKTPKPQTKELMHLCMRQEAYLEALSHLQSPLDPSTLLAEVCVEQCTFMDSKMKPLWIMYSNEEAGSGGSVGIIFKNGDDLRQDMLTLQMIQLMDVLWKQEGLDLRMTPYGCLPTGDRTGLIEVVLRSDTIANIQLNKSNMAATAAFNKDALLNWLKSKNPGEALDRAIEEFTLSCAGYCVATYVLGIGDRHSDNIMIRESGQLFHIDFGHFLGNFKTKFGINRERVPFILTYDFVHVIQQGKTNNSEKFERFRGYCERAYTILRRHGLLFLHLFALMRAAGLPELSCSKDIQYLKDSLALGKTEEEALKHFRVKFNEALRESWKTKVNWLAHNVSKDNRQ
T4 sequence (P27986 whole entry partner): as the sequence (P27986 whole entry partner) above
Description: PI3-Kinase Promega ADP-Glo Max assay. It counts as biochemical. Conditions: 20 nM kinase, 3 mM ATP, 500 uM diC8-PtdInsP. The method, then:
as §1, §2, §3

The target of a further experiment is RAJI p110 δ (Homo sapiens, UniProt O00329). Nature of the experiment: RAJI p110 δ cellular assay (phospho-AKT).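 Note: potency based on lowered phosphorylated AKT in RAJI cells, as a readout of PI3K-δ dependent B-cell receptor signaling.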
For the next experiment, the target named is T5, PI3K γ (Homo sapiens, UniProt P48736).
T5 construct: purchased Millipore
T5 sequence (P48736 whole entry): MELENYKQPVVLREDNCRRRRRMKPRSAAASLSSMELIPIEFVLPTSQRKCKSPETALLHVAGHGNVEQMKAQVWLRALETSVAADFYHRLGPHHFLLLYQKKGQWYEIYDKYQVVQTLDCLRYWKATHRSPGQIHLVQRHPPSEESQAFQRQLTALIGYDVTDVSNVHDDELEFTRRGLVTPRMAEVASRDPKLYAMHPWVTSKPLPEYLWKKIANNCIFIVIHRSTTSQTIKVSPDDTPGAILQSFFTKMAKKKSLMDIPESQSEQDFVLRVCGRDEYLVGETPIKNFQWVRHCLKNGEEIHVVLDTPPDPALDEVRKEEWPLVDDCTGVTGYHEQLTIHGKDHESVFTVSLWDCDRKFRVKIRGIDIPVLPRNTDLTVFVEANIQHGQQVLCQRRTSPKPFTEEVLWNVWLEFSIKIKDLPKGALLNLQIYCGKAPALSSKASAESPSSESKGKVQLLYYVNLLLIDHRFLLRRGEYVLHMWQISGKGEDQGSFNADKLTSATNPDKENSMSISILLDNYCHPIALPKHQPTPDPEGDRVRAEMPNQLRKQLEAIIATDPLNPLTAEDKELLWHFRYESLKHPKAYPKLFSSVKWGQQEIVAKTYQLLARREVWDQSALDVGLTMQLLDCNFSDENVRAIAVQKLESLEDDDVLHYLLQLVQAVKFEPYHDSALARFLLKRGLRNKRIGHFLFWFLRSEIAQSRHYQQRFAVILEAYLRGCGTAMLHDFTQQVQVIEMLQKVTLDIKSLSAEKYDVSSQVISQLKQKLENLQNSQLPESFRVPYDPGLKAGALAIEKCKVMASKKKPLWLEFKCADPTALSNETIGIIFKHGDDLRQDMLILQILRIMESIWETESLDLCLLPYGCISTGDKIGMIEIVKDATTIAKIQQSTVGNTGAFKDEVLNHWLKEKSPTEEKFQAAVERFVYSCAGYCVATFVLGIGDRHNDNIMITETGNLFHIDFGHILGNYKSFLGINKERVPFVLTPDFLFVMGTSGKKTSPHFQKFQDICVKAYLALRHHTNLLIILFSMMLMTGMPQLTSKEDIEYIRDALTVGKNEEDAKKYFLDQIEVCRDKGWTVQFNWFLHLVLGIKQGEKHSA
Nature of the experiment: PI3-Kinase Promega ADP-Glo Max assay. Conditions: 40 nM kinase, 3 mM ATP, 500 uM diC8-PtdInsP. The experiment is classed as biochemical. As to the method:
Promega ADP-Glo Max assay kit (Cat. No. V7002) was utilized to determine IC50 values for α, β, δ and γ isoforms of human Class I PI3 kinases (Millipore). […] Reactions were incubated at room temperature for 2 hours followed by addition of 25 uL of stop solution. After a 40-minute incubation at room temperature, 50 uL of Promega detection mix was added followed by incubation for 1 hour at room temperature. Plates were then read on Envision plate reader in luminescence mode. Data was converted to % inhibition using the following equation below:
[formula] where S is the sample luminescence, Pos is a positive control without added PI3K, Neg is the negative control without added compound. Data was then plotted as % inhibition vs compound concentration.
as §3

T1 sequence (Q9JHG7 whole entry): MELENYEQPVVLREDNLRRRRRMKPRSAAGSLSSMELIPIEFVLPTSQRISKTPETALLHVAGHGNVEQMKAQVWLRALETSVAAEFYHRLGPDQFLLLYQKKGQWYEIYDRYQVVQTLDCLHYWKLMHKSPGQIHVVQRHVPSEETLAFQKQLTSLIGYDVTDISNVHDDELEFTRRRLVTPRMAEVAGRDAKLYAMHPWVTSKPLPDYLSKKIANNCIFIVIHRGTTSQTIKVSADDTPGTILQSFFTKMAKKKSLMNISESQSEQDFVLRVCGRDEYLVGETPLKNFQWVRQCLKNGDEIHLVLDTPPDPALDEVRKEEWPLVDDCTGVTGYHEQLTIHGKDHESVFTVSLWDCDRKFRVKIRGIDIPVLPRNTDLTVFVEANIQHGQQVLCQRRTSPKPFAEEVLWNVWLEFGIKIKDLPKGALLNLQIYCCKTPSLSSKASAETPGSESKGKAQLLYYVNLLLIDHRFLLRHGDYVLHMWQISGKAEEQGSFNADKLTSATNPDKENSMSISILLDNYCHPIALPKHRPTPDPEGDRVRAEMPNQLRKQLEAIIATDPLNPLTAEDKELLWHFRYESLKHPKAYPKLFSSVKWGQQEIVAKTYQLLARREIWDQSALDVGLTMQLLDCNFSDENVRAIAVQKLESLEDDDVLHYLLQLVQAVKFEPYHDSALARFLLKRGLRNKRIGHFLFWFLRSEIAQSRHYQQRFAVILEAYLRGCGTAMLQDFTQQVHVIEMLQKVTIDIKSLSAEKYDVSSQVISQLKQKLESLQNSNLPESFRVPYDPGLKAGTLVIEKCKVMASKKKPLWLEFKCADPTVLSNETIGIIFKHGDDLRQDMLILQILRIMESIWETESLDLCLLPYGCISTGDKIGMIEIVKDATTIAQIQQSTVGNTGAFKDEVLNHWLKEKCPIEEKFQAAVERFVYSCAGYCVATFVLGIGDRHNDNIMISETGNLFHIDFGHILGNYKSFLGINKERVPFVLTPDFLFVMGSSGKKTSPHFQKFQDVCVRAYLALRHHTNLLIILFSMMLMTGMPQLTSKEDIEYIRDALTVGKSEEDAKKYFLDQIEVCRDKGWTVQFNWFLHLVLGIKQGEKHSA
Description for RAJI p110 δ: (a) PI3K-δ Selective Assay
Reduction of phospho-AKT is indicative of compounds that may inhibit B-cell proliferation and function in certain diseases.

What is called IC50 is the midpoint of a concentration-inhibition curve. Lower therefore signals inhibition by little substance. Consider `C[C@H](NC(=O)c1cccnc1N)c1cc2cccc(Cl)c2c(=O)n1-c1ccccc1` [Compound 3], for which the IC50 at Raw264.7 p110 γ lay in the range of 1 to 10 µM.
Same read-out and setting: the result for `C[C@H](NC(=O)c1cnccn1)c1cc2cccc(Cl)c2c(=O)n1-c1ccccc1` [Compound 14] reads above 10 µM; that for `C[C@H](NC(=O)c1nc(Br)cnc1N)c1cc2cccc(Cl)c2c(=O)n1-c1ccccc1` [Compound 15], above 10 µM.
Regarding `C[C@H](NC(=O)c1c(N)nn2cccnc12)c1cc2cccc(Cl)c2c(=O)n1-c1ccccc1` [Compound 70], the IC50 is 1 to 10 µM on PI3K α, 0.1 to 1 µM against PI3K β, 0.1 to 1 µM at PI3K δ and below 0.1 µM on RAJI p110 δ.
Turning to `C[C@H](NC(=O)c1c(N)nn2cccnc12)c1cc2cccc(CN(C)C)c2c(=O)n1-c1ccccc1` [Compound 231], the IC50 against PI3K α was above 10 µM; against PI3K β it was above 10 µM; against PI3K δ, below 0.1 µM; against PI3K γ it was above 10 µM.
Take `CC(=O)N(C)Cc1cccc2cc([C@H](C)NC(=O)c3c(N)nn4cccnc34)n(-c3ccccc3)c(=O)c12` [Compound 232]: the IC50 at PI3K α was above 10 µM; at PI3K β it was above 10 µM; on PI3K δ, below 0.1 µM; against PI3K γ, above 10 µM.
As for `COc1cc(-c2cccc3cc([C@H](C)NC(=O)c4c(N)nn5cccnc45)n(C4CCCCC4)c(=O)c23)ccn1` [Compound 233], the IC50 at PI3K α is above 10 µM; on PI3K β, above 10 µM; against PI3K δ, above 10 µM; at PI3K γ, 1 to 10 µM.
For `CNCCn1c([C@H](C)NC(=O)c2c(N)nn3cccnc23)cc2cccc(Cl)c2c1=O` [Compound 241], the IC50 against PI3K α was 1 to 10 µM; against PI3K β, below 0.1 µM; against PI3K δ, below 0.1 µM; against PI3K γ, 1 to 10 µM.
As to `C[C@H](NC(=O)c1c(N)nn2cccnc12)c1cc2cccc(Cl)c2c(=O)n1CCNCCO` [Compound 243], the 50% inhibitory concentration (IC50) against PI3K α was 1 to 10 µM; against PI3K β, below 0.1 µM; at PI3K δ, 0.1 to 1 µM; at PI3K γ, 1 to 10 µM.
`COc1ncc(-c2cccc3cc([C@H](C)NC(=O)c4c(N)nn5cccnc45)n(-c4ccccc4)c(=O)c23)s1` [Compound 246]: the IC50 against PI3K α is above 10 µM; against PI3K β it was above 10 µM; against PI3K δ, 1 to 10 µM; against PI3K γ, 0.1 to 1 µM.
On to `CC(=O)Nc1ncc(-c2cccc3cc([C@H](C)NC(=O)c4c(N)nn5cccnc45)n(-c4ccccc4)c(=O)c23)s1` [Compound 247], for which the IC50 on PI3K α was 1 to 10 µM; against PI3K β, above 10 µM; against PI3K δ, 1 to 10 µM; on PI3K γ, 0.1 to 1 µM.
In the case of `COC(=O)c1ncsc1-c1cccc2cc([C@H](C)NC(=O)c3c(N)nn4cccnc34)n(-c3ccccc3)c(=O)c12` [Compound 248], the IC50 against PI3K α was above 10 µM; against PI3K β, above 10 µM; against PI3K δ, above 10 µM; against PI3K γ, 1 to 10 µM.
With `C[C@H](NC(=O)c1c(N)nn2cccnc12)c1c(Br)c2cccc(F)c2c(=O)n1-c1ccccc1` [Compound 255], the IC50 against PI3K α is 1 to 10 µM; on PI3K β it was 1 to 10 µM; on PI3K δ, 1 to 10 µM; at PI3K γ, 0.1 to 1 µM.
For `COc1cccc2c(Br)c([C@H](C)NC(=O)c3c(N)nn4cccnc34)n(-c3ccccc3)c(=O)c12` [Compound 256], the IC50 at PI3K α is above 10 µM; against PI3K β, above 10 µM; on PI3K δ, 1 to 10 µM; at PI3K γ it was 0.1 to 1 µM.
Turning to `COc1cccc2c(C)c([C@H](C)NC(=O)c3c(N)nn4cccnc34)n(-c3ccccc3)c(=O)c12` [Compound 261], the IC50 at PI3K α was above 10 µM; on PI3K β it was above 10 µM; on PI3K δ it was 1 to 10 µM; at PI3K γ, 0.1 to 1 µM.
`C[C@H](NC(=O)c1nc(-c2cccc(NS(C)(=O)=O)c2)cnc1N)c1cc2cccc(N3CCOCC3)c2c(=O)n1-c1ccccc1` [Compound 263]: the IC50 was above 10 µM at PI3K α, above 10 µM on PI3K β, above 10 µM at PI3K δ and 1 to 10 µM at PI3K γ.
Take `C[C@H](NC(=O)c1c(N)nn2cccnc12)c1cc2cccc(N3CCN(C)CC3)c2c(=O)n1-c1ccccc1` [Compound 264]: the IC50 against PI3K α, on PI3K β, against PI3K δ and on PI3K γ was above 10 µM in each case.
In the case of `C[C@H](NC(=O)c1c(N)nn2cccnc12)c1cc2cccc(NC3CCCCC3)c2c(=O)n1-c1ccccc1` [Compound 265], the IC50 against PI3K α, on PI3K β, against PI3K δ and at PI3K γ was above 10 µM throughout.
Take `CC(C)Nc1cccc2cc([C@H](C)NC(=O)c3c(N)nn4cccnc34)n(-c3ccccc3)c(=O)c12` [Compound 268]: the IC50 against PI3K α, at PI3K β, against PI3K δ and on PI3K γ was above 10 µM in each case.
For the compound `Nc1nn2cccnc2c1C(=O)NCc1cc2cccc(Cl)c2c(=O)n1-c1ccccc1` [Compound 274], the IC50 against PI3K α, against PI3K β, against PI3K δ and against PI3K γ was above 10 µM each time.
`C[C@H](NC(=O)c1c(N)nn2cccnc12)c1nn2ccc(Cl)c2c(=O)n1-c1ccccc1` [Compound 286]: the IC50 against PI3K α, at PI3K β, against PI3K δ and at PI3K γ was above 10 µM throughout.
With `C[C@H](NC(=O)c1c(N)nn2cccnc12)c1nn2ccc(-c3cnn(C)c3)c2c(=O)n1-c1ccccc1` [Compound 287], the IC50 against PI3K α, against PI3K β, against PI3K δ and against PI3K γ was above 10 µM in each case.
As to `Cc1cnc(C(=O)N[C@@H](C)c2c(Br)c3cccc(Cl)c3c(=O)n2-c2ccccc2)c(N)n1` [Compound 288], the IC50 is above 10 µM on PI3K α, above 10 µM on PI3K β, 1 to 10 µM on PI3K δ and 1 to 10 µM against PI3K γ.
For `C[C@H](NC(=O)c1nccnc1N)c1nc2cccc(Cl)c2c(=O)n1-c1ccccc1` [Compound 289], the 50% inhibitory concentration (IC50) against PI3K α is above 10 µM; on PI3K β, 1 to 10 µM; on PI3K δ, below 0.1 µM; at PI3K γ, 0.1 to 1 µM.
Regarding `C[C@H](NC(=O)c1c(N)nn2cccnc12)c1cc2cccc(Cl)c2c(=O)n1CC(=O)N(C)C` [Compound 296], the IC50 against PI3K α was above 10 µM; on PI3K β, 1 to 10 µM; at PI3K δ it was above 10 µM; against PI3K γ it was above 10 µM.
Turning to `C[C@H](NC(=O)c1c(N)oc2cccnc12)c1cc2cccc(Cl)c2c(=O)n1-c1ccccc1` [Compound 298], the half-inhibitory concentration (IC50) was above 10 µM against PI3K α, 1 to 10 µM against PI3K β, 1 to 10 µM at PI3K δ and 1 to 10 µM on PI3K γ.
`C[C@H](NC(=O)c1c(N)nn2cccnc12)c1cc2cccc(OC(F)(F)F)c2c(=O)n1-c1ccccc1` [Compound 302]: the IC50 against PI3K α is above 10 µM; against PI3K β, above 10 µM; at PI3K δ, 1 to 10 µM; against PI3K γ, 1 to 10 µM.
Turning to `C[C@H](NC(=O)c1c(N)nn2cccnc12)C1Cc2cccc(F)c2C(=O)N1c1ccccc1` (stereo partly drawn) [Compound 304], the IC50 on PI3K α, on PI3K β, against PI3K δ and against PI3K γ was above 10 µM each time.
Consider `C[C@H](NC(=O)c1cc(-c2cccc(NS(C)(=O)=O)c2)cnc1N)c1cc2cccc(Cl)c2c(=O)n1-c1ccccc1` [Compound 306], for which the IC50 at PI3K α, on PI3K β, at PI3K δ and at PI3K γ was above 10 µM each time.
Regarding `C[C@H](NC(=O)c1c(N)nn2c1NCCC2)c1cc2cccc(Cl)c2c(=O)n1-c1ccccc1` [Compound 307], the IC50 against PI3K α, on PI3K β, at PI3K δ and on PI3K γ was above 10 µM throughout.

The record behind these values is US8940742B2, “Heterocyclic compounds and uses thereof” (Infinity Pharmaceuticals, Inc., priority 2012, dated 2015).
